Source: PMC12016938, “A small molecule PKCε inhibitor reduces hyperalgesia induced by paclitaxel or opioid withdrawal” (JCI Insight, 2025)
Where “and” joins values, the source holds several entries; their conditions need not be identical. Equal entries are not always repeated. Structures can show the parent of a compound that is named as a salt.

Tested on: self-administration (addictive potential)
Assay: I.v. self-administration of CP612, between-session progressive ratio and demand curve
Protocol: We tested the addictive potential of CP612 by examining the extent to which rats are willing to work to obtain CP612. Rats were initially trained to self-administer either saline, morphine (500 μg/kg/i.v. infusion), or 1 of 3 different doses of CP612 (75, 150, or 300 μg/kg/i.v. infusion) for 4 days at fixed ratio 1 (FR1, where 1 nose poke delivers 1 infusion).
During the second phase, the ratio to obtain an infusion increased geometrically every other day (FR1, FR3, FR6, FR12, FR24, FR48, and FR96).
Data (number of self-infusions) were also fitted in an economic-demand curve, which provides an estimate of the motivation to obtain drugs and their addictive potential ([20]). We measured elasticity (α), which is the relative change in consumption as a function of price (i.e., ratio of nose pokes required to obtain an infusion). Behavior is considered “inelastic” when consumption is insensitive to price and “elastic” when consumption is sensitive to price. We also measured Pmax, which is the price at which intake switches from inelastic to elastic. […] (Figure 8B).
Rats not immediately anesthetized were eliminated from the study.
Following this initial acquisition phase at FR1, the ratio to obtain the drug was increased geometrically every other day: FR3 (3 nose pokes are required to obtain 1 infusion of morphine), FR6, FR12, FR24, FR48, and FR96. This allows for analysis of drug consumption as a function of “price” using demand curves for behavioral economics, which can estimate the motivation to obtain drugs and their “addictive potential” ([20]). For this, data from each rat were fitted to the equation log Q = log Q0 + k (e ^–α(Q0 ^C) – 1), where Q represents consumption (number of self-infusions), and Q0 represents the level of consumption at the lowest price. C represents price for the drug (i.e., the ratio), and k is set to a constant accounting for the estimated range of consumption in logarithmic units (k = 4 in these studies). The symbol α is the relative change in consumption across changes in price (ratio). Behavior is considered “inelastic” when consumption is insensitive to price (i.e., the curve is flat, and consumption is maintained despite increases in price), and it switches to “elastic” when consumption is sensitive to price (i.e., when the curve is steep and consumption declines with increases in price). […] We also compared groups for their average intake in the consumption-price curves by measuring α (elasticity) and Pmax.

[1] = morphine, individual rats, column in the AH block

Compound: CN1CC[C@]23c4c5ccc(O)c4O[C@H]2[C@@H](O)C=C[C@H]3[C@H]1C5 [Morphine, Morphine sulfate, reference compound]
- AVG Latency (FR3) (morphine, individual rats): 0.17 and 0.173 and 1.3 and 0.2 and 0.6 and 1.9
- AVG Latency (FR6) (morphine, individual rats): 1.3 and 0.175 and 0.8 and 2.9 and 1.1 and 1.4
- AVG Latency (FR12) (morphine, individual rats): 0.435 and 0.663 and 0.7 and 0.227 and 2.8 and 2.7
- AVG Latency (FR24) (morphine, individual rats): 1.2 and 0.75 and 0.9 and 0.754 and 0.6 and 2.4
- AVG Latency (FR48) (morphine, individual rats): 0.8 and 0.428 and 0.738 and 0.951 and 1.0
- AVG Latency (FR96) (morphine, individual rats): 0.9 and 0.7 and 1.4 and 0.6 and 1.6
- D1 AH (FR1) (morphine, individual rats): 15 and 13 and 16 and 19 and 12
- D1 AH (FR3) (morphine, individual rats): 44 and 27 and 25 and 19 and 17 and 29
- D1 AH (FR6) (morphine, individual rats): 38 and 54 and 48 and 37 and 30 and 17
- D1 AH (FR12) (morphine, individual rats): 76 and 90 and 97 and 95 and 40 and 39
- D1 AH (FR24) (morphine, individual rats): 167 and 144 and 79 and 198 and 125 and 58
- D1 AH (FR48) (morphine, individual rats): 269 and 254 and 72 and 297 and 145 and 69
- D1 AH (FR96) (morphine, individual rats): 243 and 334 and 76 and 204 and 237 and 36
- D1 IH (FR1) (morphine, individual rats): 11 and 22 and 18 and 9 and 7
- D1 IH (FR3) (morphine, individual rats): 16 and 9 and 5 and 2 and 13 and 11
- D1 IH (FR6) (morphine, individual rats): 3 and 5 and 7 and 18 and 10
- D1 IH (FR12) (morphine, individual rats): 10 and 5 and 16 and 3 and 7
- D1 IH (FR24) (morphine, individual rats): 14 and 6 and 19 and 5 and 10
- D1 IH (FR48) (morphine, individual rats): 8 and 18 and 11 and 9 and 7 and 12
- D1 IH (FR96) (morphine, individual rats): 9 and 26 and 16 and 12 and 28
- D1 Inf (FR1) (morphine, individual rats): 9 and 8 and 12 and 10
- D1 Inf (FR3) (morphine, individual rats): 11 and 8 and 5 and 4
- D1 Inf (FR6) (morphine, individual rats): 6 and 7 and 4 and 2
- D1 Inf (FR12) (morphine, individual rats): 6 and 7 and 3
- D1 Inf (FR24) (morphine, individual rats): 6 and 5 and 3 and 8 and 4 and 2
- D1 Inf (FR48) (morphine, individual rats): 5 and 1 and 2
- D1 Inf (FR96) (morphine, individual rats): 2 and 3 and 0
- D1 Latency (FR1) (morphine, individual rats): 9.3 and 15.1 and 26.3 and 3.9 and 5.9 and 0.853
- D1 Latency (FR3) (morphine, individual rats): 0.238 and 0.2 and 1.5 and 0.9 and 0.358
- D1 Latency (FR6) (morphine, individual rats): 0.072 and 0.225 and 1.0 and 0.4 and 0.178 and 1.6
- D1 Latency (FR12) (morphine, individual rats): 0.038 and 1.0 and 0.6 and 0.032 and 1.6 and 1.2
- D1 Latency (FR24) (morphine, individual rats): 1.5 and 0.075 and 0.5 and 0.328 and 0.538 and 3.9
- D1 Latency (FR48) (morphine, individual rats): 0.107 and 0.4 and 0.5 and 1.0 and 1.4 and 1.2
- D1 Latency (FR96) (morphine, individual rats): 0.7 and 0.8 and 1.4 and 0.438 and 2.3
- D2 AH (FR1) (morphine, individual rats): 16 and 10 and 8 and 18 and 17
- D2 AH (FR3) (morphine, individual rats): 43 and 31 and 37 and 17 and 20 and 19
- D2 AH (FR6) (morphine, individual rats): 49 and 53 and 43 and 40 and 32 and 25
- D2 AH (FR12) (morphine, individual rats): 48 and 86 and 32 and 113 and 38 and 44
- D2 AH (FR24) (morphine, individual rats): 162 and 155 and 80 and 176 and 120 and 64
- D2 AH (FR48) (morphine, individual rats): 196 and 251 and 75 and 213 and 125 and 57
- D2 AH (FR96) (morphine, individual rats): 164 and 368 and 38 and 192 and 184 and 36
- D2 IH (FR1) (morphine, individual rats): 9 and 4 and 12 and 6 and 11
- D2 IH (FR3) (morphine, individual rats): 4 and 6 and 12 and 14 and 17 and 7
- D2 IH (FR6) (morphine, individual rats): 10 and 9 and 13 and 8 and 12
- D2 IH (FR12) (morphine, individual rats): 12 and 14 and 22 and 7 and 1
- D2 IH (FR24) (morphine, individual rats): 8 and 14 and 11 and 10 and 7
- D2 IH (FR48) (morphine, individual rats): 9 and 13 and 27 and 12 and 14
- D2 IH (FR96) (morphine, individual rats): 8 and 11 and 15 and 13 and 24
- D2 Inf (FR1) (morphine, individual rats): 11 and 9 and 7 and 10 and 12
- D2 Inf (FR3) (morphine, individual rats): 10 and 9 and 11 and 5
- D2 Inf (FR6) (morphine, individual rats): 8 and 7 and 6 and 4
- D2 Inf (FR12) (morphine, individual rats): 4 and 6 and 2 and 9 and 3
- D2 Inf (FR24) (morphine, individual rats): 6 and 3 and 7 and 4 and 2
- D2 Inf (FR48) (morphine, individual rats): 4 and 5 and 1 and 2
- D2 Inf (FR96) (morphine, individual rats): 1 and 3 and 0
- D2 Latency (FR1) (morphine, individual rats): 0.152 and 0.662 and 1.3 and 0.455 and 0.133 and 2.0
- D2 Latency (FR3) (morphine, individual rats): 0.1 and 0.137 and 1.1 and 0.19 and 0.327 and 3.5
- D2 Latency (FR6) (morphine, individual rats): 2.5 and 0.125 and 0.7 and 5.3 and 1.9 and 1.1
- D2 Latency (FR12) (morphine, individual rats): 0.8 and 0.372 and 0.7 and 0.422 and 4.1
- D2 Latency (FR24) (morphine, individual rats): 0.9 and 1.4 and 1.3 and 1.2 and 0.7 and 0.8
- D2 Latency (FR48) (morphine, individual rats): 1.4 and 0.457 and 1.0 and 0.9 and 0.543 and 0.367
- D2 Latency (FR96) (morphine, individual rats): 1.1 and 0.555 and 1.4 and 0.748 and 0.66 and 1.0
- D3 AH (FR1) (morphine, individual rats): 24 and 13 and 8 and 20 and 17
- D3 IH (FR1) (morphine, individual rats): 18 and 4 and 15 and 3 and 20 and 8
- D3 Inf (FR1) (morphine, individual rats): 10 and 7 and 14
- D3 Latency (FR1) (morphine, individual rats): 0.3 and 0.137 and 7.8 and 0.352 and 0.9 and 0.327
- D4 AH (FR1) (morphine, individual rats): 23 and 12 and 13 and 17 and 15
- D4 IH (FR1) (morphine, individual rats): 3 and 5 and 8 and 6 and 9
- D4 Inf (FR1) (morphine, individual rats): 13 and 10 and 11 and 9 and 8
- D4 Latency (FR1) (morphine, individual rats): 0.06 and 0.143 and 4.0 and 0.342 and 1.1
- last AH (FR1) (morphine, individual rats): 21 and 12 and 18 and 22 and 14 and 10
- last IH (FR1) (morphine, individual rats): 4 and 1 and 3 and 7 and 9
- last Inf (FR1) (morphine, individual rats): 15 and 10 and 12 and 17 and 9 and 7
- last Latency (FR1) (morphine, individual rats): 0.5 and 0.7 and 2.0 and 0.017 and 0.4 and 1.1
- last-1 AH (FR1) (morphine, individual rats): 23 and 12 and 13 and 17 and 15
- last-1 IH (FR1) (morphine, individual rats): 3 and 5 and 8 and 6 and 9
- last-1 Inf (FR1) (morphine, individual rats): 13 and 10 and 11 and 9 and 8
- last-1 Latency (FR1) (morphine, individual rats): 0.06 and 0.143 and 4.0 and 0.342 and 1.1
- last-2 AH (FR1) (morphine, individual rats): 24 and 13 and 8 and 20 and 17
- last-2 IH (FR1) (morphine, individual rats): 18 and 4 and 15 and 3 and 20 and 8
- last-2 Inf (FR1) (morphine, individual rats): 10 and 7 and 14
- last-2 Latency (FR1) (morphine, individual rats): 0.3 and 0.137 and 7.8 and 0.352 and 0.9 and 0.327
- last-3 AH (FR1) (morphine, individual rats): 24 and 13 and 8 and 18 and 10 and 17
- last-3 IH (FR1) (morphine, individual rats): 18 and 4 and 12 and 6 and 11
- last-3 Inf (FR1) (morphine, individual rats): 10 and 7 and 11 and 12
- last-3 Latency (FR1) (morphine, individual rats): 0.3 and 0.137 and 1.3 and 0.455 and 0.133 and 2.0
- AVG Inf (FR1_D1 to D4) [1]: 19.5 and 12.0 and 11.0 and 16.8 and 14.8 and 15.3
- AVG Inf (FR1_Last 2 FR1 days) [1]: 22.0 and 12.0 and 15.5 and 17.5 and 12.5
- AVG Inf (FR1_Last 4 FR1 days) [1]: 23.0 and 12.5 and 11.8 and 18.3 and 13.5 and 14.8
- AVG AH (FR3) (per-rat average): 24.0 and 20.5 and 23.0
- AVG AH (FR6) (per-rat average): 55.0 and 42.0 and 46.5
- AVG AH (FR12) (per-rat average): 107.5 and 82.0 and 88.0
- AVG AH (FR24) (per-rat average): 143.0 and 145.0 and 172.0
- AVG AH (FR48) (per-rat average): 138.0 and 149.0 and 142.5
- AVG AH (FR96) (per-rat average): 116.5 and 141.0 and 156.0
- AVG IH (FR1_Last 2 FR1 days) (per-rat average): 1.5 and 3.0
- AVG IH (FR6) (per-rat average): 4.5 and 8.5 and 7.5
- AVG IH (FR48) (per-rat average): 16.0 and 12.0 and 23.5
- AVG Inf (FR1_D1 to D4) (per-rat average): 6.0 and 7.3 and 9.3
- AVG Inf (FR1_Last 2 FR1 days) (per-rat average): 6.5 and 7.5
- AVG Inf (FR1_Last 4 FR1 days) (per-rat average): 6.0 and 7.0 and 8.3
- AVG Inf (FR3) (per-rat average): 7.5 and 5.5 and 7.0
- AVG Inf (FR6) (per-rat average): 8.0 and 6.5 and 7.0
- AVG Inf (FR12) (per-rat average): 8.5 and 5.5 and 6.5
- AVG Inf (FR24) (per-rat average): 5.0 and 5.5 and 6.5
- AVG Inf (FR48) (per-rat average): 2.5
- AVG Inf (FR96) (per-rat average): 1.0
- AVG Latency (FR1_D1 to D4) (per-rat average): 0.7 and 1.3 and 0.8
- AVG Latency (FR3) (per-rat average): 0.3 and 0.6 and 0.339
- AVG Latency (FR96) (per-rat average): 0.8 and 0.7 and 0.9
